Like-named read-outs stand apart in the source and are kept apart here.
Tests used:
[1] = tested on: HT29 cell line; experiment: BrdU cell growth inhibition, HT29; type: cell-based, human; settings: for activity at 0.05 µM / activity at 0.5 µM / activity at 5 µM: HT-29, read-out: HT-29 Growth, % of Control Mean, n = 3; for activity at 0.05 µM: 50 nM; for activity at 0.5 µM: 500 nM
Method: (§1) The GI50s for several of the compounds of the invention were assayed as described herein.
The HT29 cell line is a NCI standard human colon carcinoma cell line.
(§2) In the BrdU Assay for cell growth inhibition, quantitation of cell proliferation was based on the measurement of BrdU incorporation during DNA synthesis. The Cell Proliferation ELISA BrdU assay kit (colorimetric) was obtained from Roche Applied Science and performed as per vendor instructions.
(§3) The growth inhibition (GI) is determined from the formula GI=(T0−Tn×100/T0−CONn) where T0 is the BrdU growth of untreated cells at time “0”, Tn is the BrdU growth of treated cells at day “n” and CONn is the control BrdU growth of control cells at day “n”. The GI50 was extrapolated and the data plotted using XL-Fit 4.0 software.
(§4) For 96 well culture plate experiments, c-Src 3T3 medium was supplemented with 10 mM HEPES buffer. HT-29 cells were seeded in standard tissue culture 96-well plates and c-Src 3T3 cells were seeded in 96-well plates coated with Poly-D-lysine (BIOCOAT™). To increase CO2 diffusion, c-Src 3T3 96-well plates were incubated with their lids raised by ˜2 mm using sterile rubber caps.
(§5) Samples were reconstituted in DMSO at 20 mM and intermediate dilutions made using DMEM containing 10% FBS. […] Plates were assayed for BrdU and the data analyzed as above for GI50.
(§6) All compounds were initially prepared as 20 mM DMSO stock solutions and then diluted into buffer for the in vitro tumor growth assays. NG means no cell growth beyond the control and T means the number of cells in the drug treated wells was less than in the control (i.e. net cell loss).
Growth Inhibition. […] T1 values≤T0 values were designated as T, cytotoxicity.

[2] = tested on: c-Src 3T3 cells; experiment: BrdU cell growth inhibition, c-Src 3T3; type: cell-based, mouse; settings: for activity at 0.1 µM / activity at 1 µM / activity at 10 µM: NIH3T3, read-out: c-Src 3T3 Growth, % of Control Mean, n = 3; for activity at 0.1 µM: 100 nM; for GI50: c-Src 3T3 (c-Src527F/NIH3T3) cells
Method: as §1
The cells were routinely cultured in DMEM supplemented with Fetal Bovine Serum (2.0% v/V), L-glutamine (2 mM) and Sodium Pyruvate (1 mM).
as §2, §3, §4, §5, §6

[3] = Homo sapiens, HT-29, HT29 (Colon) cells, read-out: GI50

Row | Structure (SMILES) | activity at 0.05 µM ([1]; Homo sapiens) [%] | activity at 0.5 µM ([1]; Homo sapiens) [%] | activity at 5 µM ([1]; Homo sapiens) [%] | activity at 0.1 µM ([2]; Mus musculus) [%] | activity at 1 µM ([2]; Mus musculus) [%] | activity at 10 µM ([2]; Mus musculus) [%] | GI50 ([1]; HT29 (Colon) cells) | GI50 [2] | GI50 [1, 3] [nM] | GI50 ([2]; Mus musculus, read-out: GI50) [nM] | GI50 ([1]; HT29 (Colon) cells, read-out: GI50) [nM]
1 | CS(=O)(=O)c1ccc(-c2ccc(CC(=O)NCc3cccc(F)c3)cn2)cc1 [KX1-326, N-(3-Fluoro-benzyl)-2-[6-(4-methanesulfonyl-phenyl)-pyridin-3-yl]-acetamide] | 65.4 | 73.2 | 43.7 | 92.2 | 87.3 | 55.7 |  |  |  |  | 
2 | CCOc1ccc(-c2ccc(CC(=O)NCc3cccc(F)c3)nc2)c(OCCN2CCCCC2)c1 [KX2-389] |  |  |  |  |  |  | inactive | Inactive |  |  | 
3 | CCOc1ccccc1-c1ccc(CC(=O)NCc2cccc(F)c2)nc1 [KX2-360] | 91 | < 0 | < 0 | 106 | < 0 | < 0 |  |  |  |  | 
4 | CCOc1ccc(-c2ccc(CC(=O)NCc3cccc(F)c3)nc2)cc1 [KX2-359] | < 0 | < 0 | < 0 | < 0 | < 0 | < 0 |  |  | 45 | 34 | 
5 | O=C(Cc1ccc(-c2ccc(OCCCN3CCCCC3)cc2)cn1)NCc1cccc(F)c1 [KX2-374] | 74 | 57 | < 0 | 110 | 84 | < 0 |  |  |  |  | 
6 | CCOc1cccc(-c2ccc(CC(=O)NCc3cccc(F)c3)cn2)c1 [KX1-322, 2-[6-(3-Ethoxy-phenyl)-pyridin-3-yl]-N-(3-fluoro-benzyl)-acetamide] | 114 | 87.2 | < 0 | 94.6 | < 0 | < 0 |  |  |  | 3730 | 
7 | COc1cc(Nc2c(C#N)cnc3cc(OCCCN4CCN(C)CC4)c(OC)cc23)c(Cl)cc1Cl [SKI-606] |  |  |  |  |  |  |  |  | 173 | 208 | 
8 | CCOc1ccccc1-c1ccc(CC(=O)NCc2cc(F)cc(OCC(C)C)c2)nc1 [KX2-369] | 87 | 72 | < 0 | 100 | 101 | < 0 |  |  |  |  | 
9 | CC(C)COc1cc(F)cc(CNC(=O)Cc2ccc(-c3ccc(OCCN4CCOCC4)cc3)cn2)c1 [KX2-387] |  |  |  |  |  |  |  | inactive | 1860 |  | 
10 | CCOc1ccc(-c2ccc(CC(=O)NCc3cc(F)cc(N4CCN(C)CC4)c3)nc2)cc1 [KX2-388] |  |  |  |  |  |  |  |  | 906 | > 1600 | 
11 | O=C(Cc1ccc(-c2ccccc2)nc1)NCc1cccc(F)c1 [KX1-314, N (3-fluorobenzyl)-2-phenylpyridine-5-acetamide] | 53.2 | 83.7 | 14.4 | 93.6 | 88.4 | 39.3 |  |  |  |  | 
12 | O=C(Cc1cccc(-c2ccccc2)c1)NCc1cccc(F)c1 [KX1-307] | 85.9 | 93.8 | 39.4 | 65.7 | 45.3 | 4.2 |  |  |  |  | 
13 | O=C(Cc1ccc(-c2ccccn2)cc1)NCc1cccc(F)c1 [KX1-315, N-(3-Fluoro-benzyl)-2-(4-pyridin-2-yl-phenyl)-acetamide] | 66 | 50.3 | < 0 | 89.3 | 88.1 | < 0 |  |  |  |  | 
14 | O=C(Cc1ccc(-c2ccccc2)cc1F)NCc1cccc(F)c1 [KX1-313, N-(3-fluorobenzyl)-4-phenyl-2-fluorophenylacetamide] | 80.2 | < 0 | < 0 | 91.6 | < 0 | < 0 |  |  |  |  | 
15 | O=C(Cc1ccc(-c2ccc(OCCN3CCOCC3)cc2F)cn1)NCc1cccc(F)c1 [KX2-392] |  |  |  |  |  |  |  |  | 21 | 13 | 
16 | O=C(Cc1ccc(-c2cccc(F)c2)nc1)NCc1cccc(F)c1 [KX1-321, N-(3-Fluoro-benzyl)-2-[6-(3-fluoro-phenyl)-pyridin-3-yl]-acetamide] | 127 | 118 | 23.7 | 95.5 | 96.2 | 55.8 |  |  |  |  | 

Row | Structure (SMILES) | activity at 0.05 µM ([1]; Homo sapiens) [%] | activity at 0.5 µM ([1]; Homo sapiens) [%] | activity at 5 µM ([1]; Homo sapiens) [%] | activity at 0.1 µM ([2]; Mus musculus) [%] | activity at 1 µM ([2]; Mus musculus) [%] | activity at 10 µM ([2]; Mus musculus) [%] | GI50 ([1]; HT29 (Colon) cells) | GI50 [2] | GI50 [1, 3] [nM] | GI50 ([2]; Mus musculus, read-out: GI50) [nM] | GI50 ([1]; HT29 (Colon) cells, read-out: GI50) [nM]
17 | O=C(Cc1ccc(-c2ccc(C(=O)O)cc2)nc1)NCc1cccc(F)c1 [KX1-323, 4-{5-[(3-Fluoro-benzylcarbamoyl)-methyl]-pyridin-2-yl}-benzoic acid] | 106 | 107 | 60.8 | 96.6 | 97.3 | 93.2 |  |  |  |  | 
18 | O=C(Cc1ccc(-c2ccccc2)cc1)NCc1cc(O)cc(OCc2ccccc2)c1 [KX1-306] | 124 | < 0 | < 0 | 47 | < 0 | < 0 |  |  |  |  | 
19 | CCOc1ccccc1-c1ccc(CC(=O)NCc2cccc(F)c2)cn1 [KX1-324, 2-[6-(2-Ethoxy-phenyl)-pyridin-3-yl]-N-(3-fluoro-benzyl)-acetamide] | 91 | 95.7 | 0 | 96 | 90 | < 0 |  |  |  |  | 
20 | CC(C)COc1cc(F)cc(CNC(=O)Cc2ccc(-c3ccc(OCCN4CCCCC4)cc3)cn2)c1 [KX2-386] |  |  |  |  |  |  | inactive |  |  | 897 | 
21 | O=C(Cc1ccc(-c2ccncc2)cc1)NCc1cccc(F)c1 [KX1-327] | 31.6 | < 0 | < 0 | 81.3 | < 0 | < 0 |  |  | 680 | > 200 | 
22 | O=C(Cc1ccc(-c2ccc(OCCCN3CCOCC3)cc2)cn1)NCc1cccc(F)c1 [KX2-383] |  |  |  |  |  |  |  |  | 248 | 327 | 
23 | CCc1ccc(-c2ccc(CC(=O)NCc3cccc(F)c3)cn2)cc1 [KX1-318, 2-[6-(4-Ethyl-phenyl)-pyridin-3-yl]-N-(3-fluoro-benzyl)-acetamide] | 165 | 93.2 | < 0 | 91.4 | 71 | < 0 |  |  |  |  | 
24 | CC(C)COc1cc(F)cc(CNC(=O)Cc2ccc(-c3ccc(N4CCCCC4)cc3)cn2)c1 [KX2-371] | 98 | 33 | 16 | 75 | 72 | 16 |  |  |  |  | 
25 | CC(C)COc1cc(F)cc(CNC(=O)Cc2ccc(-c3ccc(N4CCOCC4)cc3)cn2)c1 [KX2-370] | 112 | 93 | 81 | 104 | 105 | 106 |  |  |  |  | 
26 | O=C(Cc1ccc(-c2ccc(OCCN3CCOCC3)cc2)cn1)NCc1cccc(F)c1 [KX2-377] | < 0 | < 0 | < 0 | < 0 | < 0 | < 0 |  |  | 111 | 118 | 
27 | O=C(Cc1ccc(-c2cccc(F)c2)cc1)NCc1cccc(F)c1 [KX1-310, N-(3-fluorobenzyl)-4-(3-fluorophenyl)phenylacetamide] | 93.3 | < 0 | < 0 | 102 | < 0 | < 0 |  |  |  |  | 
28 | O=C(Cc1ccc(-c2cc[n+]([O-])cc2)cc1)NCc1cccc(F)c1 [KX1-357] |  |  |  | 101 | 95.4 | 9 |  |  |  |  | 
29 | CCOc1ccc(-c2ccc(CC(=O)NCc3cccc(F)c3)c[n+]2[O-])cc1 [KX1-358, 2-[6-(4-Ethoxy-phenyl)-1-oxo-pyridin-3-yl]-N-(3-fluoro-benzyl)-acetamide] |  |  |  | 92.2 | 91.4 | 82.7 |  |  |  |  | 
30 | O=C1[O][Pt]2([NH][C@@H]3CCCC[C@H]3[NH]2)[O]C1=O [oxaliplatin, reference compound] |  |  |  |  |  |  |  |  |  |  | 1480
31 | CC(C)COc1cc(F)cc(CNC(=O)Cc2ccc(-c3ccc(CN4CCN(C)CC4)cc3)cn2)c1 [KX2-385] |  |  |  |  |  |  |  |  |  | 232 | 

From patent US10196357B2, “Biaryl compositions and methods for modulating a kinase cascade” (Athenex, Inc., priority 2007, dated 2019)
